These results are taken from patent publication US20180228858A1, “A PLANT EXTRACT AND COMPOUNDS FOR USE IN WOUND HEALING” (priority 2014, published 2018).

For one data set, the target named is T1, human CYP11B1 (Homo sapiens, UniProt P15538).
T1 construct: expressed in transfected cells; host or cells: V79MZh11B1 cell line (V79 hamster fibroblasts by own knowledge)
T1 sequence (P15538 25-503): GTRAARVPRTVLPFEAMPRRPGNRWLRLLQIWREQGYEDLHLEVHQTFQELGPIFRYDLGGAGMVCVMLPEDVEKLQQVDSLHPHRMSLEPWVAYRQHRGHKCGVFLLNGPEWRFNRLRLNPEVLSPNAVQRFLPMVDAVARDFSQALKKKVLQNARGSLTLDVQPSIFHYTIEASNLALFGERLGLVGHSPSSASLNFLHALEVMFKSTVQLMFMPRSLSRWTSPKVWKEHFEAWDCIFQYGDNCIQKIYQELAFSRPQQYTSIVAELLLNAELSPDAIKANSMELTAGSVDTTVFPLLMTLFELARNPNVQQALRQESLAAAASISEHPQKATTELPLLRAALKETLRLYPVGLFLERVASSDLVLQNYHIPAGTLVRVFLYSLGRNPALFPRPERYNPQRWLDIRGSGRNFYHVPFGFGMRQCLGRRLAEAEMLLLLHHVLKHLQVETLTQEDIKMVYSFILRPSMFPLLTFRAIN
The data set can be described thus: CYP11B1 assay in V79MZh11B1 cells expressing recombinant human CYP11B1. Format: cell-based. As to conditions: mean ± SD of 2 independent experiments; for % CYP11B1 Inhibition: 10 μM; for inhibition at 1 µM: V79MZh11B1, 1 μM; for inhibition at 10 µM: V79MZh11B1, 10 μM; for inhibition at 100 µM: V79MZh11B1, 100 μM. As to the method:
Applicant dissolved ˜10 mg of the Salvia m. Bunge extract (as disclosed in WO2009050451) in the required volume of 100% ethanol or 100% DMSO to obtain a 1% (w/v) extract solution. They tested 5 μL of this solution in a 500 μL assay incubation volume (final ethanol or DMSO conc. of 1%). From this 1% Salvia m. Bunge extract solution, they also prepared a 1:10 and 1:100 dilution in 100% ethanol or 100% DMSO. From these solutions, they tested 5 μL in a 500 μL assay incubation volume.
The V79MZh11B1 cell line, expressing recombinant human CYP11B1, was cultured in Dulbecco's modified Eagle (DME, Sigma) medium supplemented with 5% fetal calf serum (FCS; Sigma), penicillin G (100 U/ml), streptomycin (100 μg/ml), glutamine (2 mM) and sodium pyruvate (1 mM) at 37° C. in 5% CO2 in air. Cells were placed on 24-well cell culture plates (8×10^5 cells per well) and cultured in 1 ml DME medium per well until confluence. On the day of testing, DME medium was removed and 450 μl of fresh DMEM, containing 5 μl of the extract solution in 100% ethanol or 100% DMSO, was added to each well. There was no significant difference in CYP11B1 inhibition between DMSO or ethanol as solvent. Control wells (receiving vehicle or ketoconazole (final concentration of 50 nM) as reference compound to validate each experiment) were treated in the same way without extract solution. After 60 min at 37° C. in the CO2 incubator, the reaction was started by the addition of 50 μl of DMEM containing 100 nM of 11-deoxycorticosterone (plus 0.15 μCi of [1,2-^3H] 11-deoxycorticosterone) as substrate. All measurements were in duplicate. After 25 min, the enzyme reaction was stopped by extracting the supernatant with ethyl acetate. Samples were centrifuged (10,000×g, 10 min), and the upper phase was pipetted into fresh cups. The ethylacetate solvent was evaporated and the residue was dissolved in 40 μl of methanol and analyzed by HPLC. The following formulas were used to determine the level of conversion and percentage of enzyme inhibition.
Given the activity of the extract the Applicant looked at the activity of some of the tanshinones using the methodology described in Example 1.

In the next data set the test system is V79MZh11B1 cells. The data set can be described thus: MTT cellular viability assay. The class given is cell-based. As to the method: In order to check that the inhibition was not due to toxicity, a MTT [3-(4,5-dimethylthiazol-2-yl)-2,5-diphenyl-tetrazolium bromide] cellular viability assay was performed in the same cell line under the incubation conditions used in the CYP11B1 screening assay as set out in Example 2 below:
V79MZh11B1 cells were cultured on 24-well cell culture plates (8×10^5 cells per well) in 1 ml DME medium until confluence. On the day of testing, DME medium was removed and 450 μl of fresh DME medium with 5% FCS, containing 5 μl of the Salvia m. Bunge extract solution in 100% ethanol, was added to each well. Ethanol (1%) and Triton® X-100 (0.0006%) were used as vehicle and positive control (all final concentrations), respectively. All measurements were in quadruplicate. After 60 min at 37° C. in a 5% CO2, 50 μl of fresh DME medium (+5% FCS) was added to each well. After 25 min, medium was replaced by 500 μl fresh DME medium (+5% FCS) to which 25 μl of MTT solution (5 mg per ml PBS, pH 7.2) was added immediately. After 30 min, all medium was removed and the cells were lysed in 250 μl of 0.5% acetic acid (v/v), 10% SDS (w/v) in DMSO. Absorbance of formazan was measured spectrophotometrically at 570 nm wavelength

For orientation: inhibition means the change of the read-out against control, counted positive when it falls.

With `Cc1cccc2c3c(ccc12)C1=C(C(=O)C3=O)[C@@H](C)CO1` [Dihydrotanshinone, 15,16-dihydrotanshinone I], at human CYP11B1, the “% CYP11B1 Inhibition” value is 93.6 ± 9.1%, the inhibition at 1 µM was found to be 43.3 ± 14.7%, the inhibition at 10 µM worked out at 94% and the inhibition at 100 µM amounted to 100%.
The corresponding values for `Cc1coc2c1C(=O)C(=O)c1c-2ccc2c(C)cccc12` [Tanshinone I] are 63.7 ± 4.5%, 19.1 ± 7.9%, 64% and 81.1 ± 6.9%.
For `C[C@H]1COC2=C1C(=O)C(=O)c1c2ccc2c1CCCC2(C)C` [Cryptotanshinone], on human CYP11B1, the inhibition at 1 µM stood at 6.4 ± 1.6%, the inhibition at 10 µM came to 15.4 ± 10.3% and the inhibition at 100 µM was 59.9 ± 22%.
Turning to Triton X-100, the “Cell viability (MTT conversion into formazan, 1% ethanol = 100%)” value was determined as 3 ± 1% in the data set with V79MZh11B1 cells (Experiment 1, final conc. 0.0006%) and 3 ± 1% in the data set with V79MZh11B1 cells (Experiment 2, final conc. 0.0006%). For the same compound, in the data set on V79MZh11B1 cells (positive control, 0.0006%), the “effect on formazan formation” value was “almost fully block formazan formation”.
On to `Cc1coc2c1C(=O)C(=O)c1c-2ccc2c1CCCC2(C)C` [Tanshinone IIA], for which, at human CYP11B1, the inhibition at 1 µM came out at 5.9 ± 0.2%, the inhibition at 10 µM is 16.1 ± 13.5% and the inhibition at 100 µM worked out at 29.4 ± 0.4%.
